One may read the IC50 as the concentration that gives 50% inhibition.

For 15 compounds, IC50 results are on record in patent US6960597B2, “Aza-bridged-bicyclic amino acid derivatives as α4 integrin antagonists” (Orth-McNeil Pharmaceutical, Inc., priority 2000, dated 2005).

The target of assay [1] is T1, α4β1 integrin receptor (Homo sapiens, UniProt P05556+P13612).
T1 construct: Ramos Cell Adhesion Assay (α4β1 Mediated Adhesion/VCAM-1); endogenous in cells; host or cells: Ramos cells
The experiment in a line: Ramos Cell Adhesion Assay (α4β1 Mediated Adhesion/VCAM-1). The assay is classed as cell-based. Put shortly: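 Plates coated overnight at 4° C with recombinant hVCAM-1 (4.0 μg/mL, pH 9.0), then blocked with PBS/1% BSA. Ramos cells labelled with 5 μM Calcein AM adhered 1 h at room temperature with compound; after washing, cells were lysed in SDS and fluorescence read at 485/530 nm.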

In assay [2] the target is T2, human α4β7 (Homo sapiens, UniProt P13612+P26010).
T2 construct: expressed in transfected cells
T2 sequence (P13612 34-1032): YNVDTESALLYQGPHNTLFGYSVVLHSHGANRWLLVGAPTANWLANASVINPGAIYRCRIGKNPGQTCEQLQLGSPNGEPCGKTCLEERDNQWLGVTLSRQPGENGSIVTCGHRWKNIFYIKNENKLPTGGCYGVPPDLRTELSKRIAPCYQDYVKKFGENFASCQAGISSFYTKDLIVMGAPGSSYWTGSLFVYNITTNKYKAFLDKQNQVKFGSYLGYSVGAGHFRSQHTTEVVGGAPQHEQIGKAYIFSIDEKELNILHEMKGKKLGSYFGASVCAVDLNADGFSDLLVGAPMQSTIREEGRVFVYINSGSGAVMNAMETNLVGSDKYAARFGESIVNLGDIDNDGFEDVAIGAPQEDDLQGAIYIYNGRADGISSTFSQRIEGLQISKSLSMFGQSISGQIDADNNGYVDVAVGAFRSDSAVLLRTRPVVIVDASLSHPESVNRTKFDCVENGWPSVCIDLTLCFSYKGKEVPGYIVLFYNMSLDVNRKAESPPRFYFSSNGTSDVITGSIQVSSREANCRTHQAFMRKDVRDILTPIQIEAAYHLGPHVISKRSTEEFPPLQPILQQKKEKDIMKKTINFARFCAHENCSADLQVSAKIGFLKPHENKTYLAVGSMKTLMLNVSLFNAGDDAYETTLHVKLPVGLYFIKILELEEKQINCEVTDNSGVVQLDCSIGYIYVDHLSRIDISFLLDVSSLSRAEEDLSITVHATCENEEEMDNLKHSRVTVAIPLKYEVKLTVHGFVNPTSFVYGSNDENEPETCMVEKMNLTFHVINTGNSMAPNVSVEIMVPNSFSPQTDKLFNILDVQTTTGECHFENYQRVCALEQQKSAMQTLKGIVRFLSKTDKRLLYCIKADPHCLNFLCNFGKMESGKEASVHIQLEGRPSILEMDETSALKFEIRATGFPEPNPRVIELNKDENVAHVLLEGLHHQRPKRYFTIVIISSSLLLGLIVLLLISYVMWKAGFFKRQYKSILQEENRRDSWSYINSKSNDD
T2 sequence (P26010 20-798): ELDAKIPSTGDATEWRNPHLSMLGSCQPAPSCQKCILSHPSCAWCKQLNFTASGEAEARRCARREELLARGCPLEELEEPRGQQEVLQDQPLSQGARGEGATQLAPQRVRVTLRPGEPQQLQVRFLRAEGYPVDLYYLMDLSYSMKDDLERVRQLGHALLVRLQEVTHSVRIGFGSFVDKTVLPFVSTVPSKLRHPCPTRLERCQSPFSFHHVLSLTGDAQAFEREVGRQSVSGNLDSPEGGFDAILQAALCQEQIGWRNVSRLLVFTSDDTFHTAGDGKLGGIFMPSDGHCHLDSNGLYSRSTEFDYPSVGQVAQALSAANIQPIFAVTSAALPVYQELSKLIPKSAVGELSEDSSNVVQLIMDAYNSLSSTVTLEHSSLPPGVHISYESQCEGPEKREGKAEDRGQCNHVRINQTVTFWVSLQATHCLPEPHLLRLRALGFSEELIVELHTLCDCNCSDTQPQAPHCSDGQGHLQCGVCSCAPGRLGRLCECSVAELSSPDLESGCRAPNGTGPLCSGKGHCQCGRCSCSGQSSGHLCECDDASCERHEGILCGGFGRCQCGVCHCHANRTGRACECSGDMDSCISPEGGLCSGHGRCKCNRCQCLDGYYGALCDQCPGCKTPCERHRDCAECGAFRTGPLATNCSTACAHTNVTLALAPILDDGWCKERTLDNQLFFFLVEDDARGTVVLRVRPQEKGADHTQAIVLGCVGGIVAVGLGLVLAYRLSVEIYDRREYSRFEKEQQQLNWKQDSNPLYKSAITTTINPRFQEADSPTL
The experiment in a line: α4β7-K562 Cell Adhesion Assay (α4β7 Mediated Adhesion/VCAM-1). The assay is classed as cell-based. Put shortly: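 K562 cells stably expressing human α4β7, labelled with 5 μM Calcein AM, adhered for 1 h at room temperature to plates coated with recombinant hVCAM-1 (4.0 μg/mL) in the presence of compound. After washing, cells were lysed in Tris/SDS. Bound cells were read by fluorescence at 485/530 nm.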

[3] abbreviates: Table III, read-out: Inhibition of Binding of Ramos Cells to Immobilized VCAM-1 IC50.
Setting [4] is: Table IV, μM, read-out: Inhibition of Binding of K562 Cells to Immobilized VCAM-1 IC50.
The mark [5] stands for this setting: Table III, μM, read-out: Inhibition of Binding of Ramos Cells to Immobilized VCAM-1 IC50.
[6] abbreviates: Table I, racemic mixtures and resolved (S,S) and (R,S) diastereomers, read-out: Antagonist IC50 Activity α4β1.
Setting [7] is: Table I, racemic mixtures and resolved (S,S) and (R,S) diastereomers, read-out: Antagonist IC50 Activity α4β7.
The mark [8] stands for this setting: Table IV, read-out: Inhibition of Binding of K562 Cells to Immobilized VCAM-1 IC50.

Where two headings read alike, the source gives them in different places. Some results are limits rather than exact numbers.

T1 sequence (P05556 21-798, one chain of several): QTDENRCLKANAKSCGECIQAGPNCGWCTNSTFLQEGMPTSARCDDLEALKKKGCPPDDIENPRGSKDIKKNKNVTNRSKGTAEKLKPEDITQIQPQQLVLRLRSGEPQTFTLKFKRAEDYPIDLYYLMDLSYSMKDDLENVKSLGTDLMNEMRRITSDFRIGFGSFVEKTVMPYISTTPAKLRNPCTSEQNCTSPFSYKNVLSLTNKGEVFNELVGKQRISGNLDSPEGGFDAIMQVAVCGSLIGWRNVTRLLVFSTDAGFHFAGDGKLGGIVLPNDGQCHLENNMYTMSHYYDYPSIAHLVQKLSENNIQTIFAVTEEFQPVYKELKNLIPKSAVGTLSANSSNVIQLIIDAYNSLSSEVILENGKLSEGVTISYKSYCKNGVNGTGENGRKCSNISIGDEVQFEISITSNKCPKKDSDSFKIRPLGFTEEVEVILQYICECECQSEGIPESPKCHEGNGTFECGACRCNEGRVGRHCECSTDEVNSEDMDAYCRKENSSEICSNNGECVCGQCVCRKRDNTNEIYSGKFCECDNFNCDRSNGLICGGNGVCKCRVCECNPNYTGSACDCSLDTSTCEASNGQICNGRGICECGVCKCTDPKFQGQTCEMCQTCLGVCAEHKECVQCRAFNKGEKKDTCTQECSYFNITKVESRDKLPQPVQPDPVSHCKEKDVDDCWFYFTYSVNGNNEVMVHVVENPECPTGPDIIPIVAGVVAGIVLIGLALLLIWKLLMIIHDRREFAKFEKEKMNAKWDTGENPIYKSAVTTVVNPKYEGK

As for `Cc1ccc(S(=O)(=O)N2C3CCC(CC3)C2C(=O)N[C@@H](Cc2ccc(C#Cc3ccc(C(C)(C)C)cc3)cc2)C(=O)O)cc1` (stereo partly drawn) [Cpd 23, 4-[[4-(1,1-dimethylethyl)phenyl]ethynyl]-N-[[2-[(4-methylphenyl)sulfonyl]-2-azabicyclo[2.2.2]oct-3-yl]carbonyl]-L-phenylalanine], the IC50 was 1.42 µM in assay [1] (setting [3]) and greater than 10 µM in assay [2] (setting [4]).
Take `Cc1ccc(S(=O)(=O)N2C3CCC(CC3)C2C(=O)N[C@@H](Cc2ccc(NC(=O)c3c(C(C)C)cc(C(C)C)cc3C(C)C)cc2)C(=O)O)cc1` (stereo partly drawn) [Cpd 31, 4-[[2,4,6-tris(1-methylethyl)benzoyl]amino]-N-[[2-[(4-methylphenyl)sulfonyl]-2-azabicyclo[2.2.2]oct-3-yl]carbonyl]-L-phenylalanine]: the values for the IC50 in assay [1] (setting [5]) and in assay [2] (setting [4]) were greater than 5 µM and greater than 10 µM, respectively.
As for `CC(C)(C)OC(=O)N1CCC(C(=O)Nc2ccc(C[C@H](NC(=O)C3C4CCC(CC4)N3S(=O)(=O)c3ccccc3)C(=O)O)cc2)CC1` (mixture of isomers) [Cpd 53, 4-[[[1-[(1,1-dimethylethoxy)carbonyl]-4-piperidinyl]carbonyl]amino]-N-[[2-(phenylsulfonyl)-2-azabicyclo[2.2.2]oct-3-yl]carbonyl]-L-phenylalanine], the half-maximal inhibitory concentration (IC50) was determined as 0.179 µM in assay [1] (setting [6]), 0.067 µM in assay [1] (setting [3]) and 0.871 µM in assay [2] (setting [7]).
For `CCOc1ccc2ccccc2c1C(=O)Nc1ccc(C[C@H](NC(=O)[C@@H]2C3CCC(CC3)N2S(=O)(=O)c2ccccc2)C(=O)O)cc1` [Cpd 65, 4-[[(2-ethoxy-1-naphthalenyl)carbonyl]amino]-N-[[(3S)-2-(phenylsulfonyl)-2-azabicyclo[2.2.2]oct-3-yl]carbonyl]-L-phenylalanine], the half-inhibitory concentration (IC50) came to 0.193 µM in assay [1] (setting [3]) and 0.394 µM in assay [2] (setting [8]).
In the case of `COc1cccc(OC)c1-c1ccc(C[C@H](NC(=O)C2C3CCC(CC3)N2S(=O)(=O)c2ccc(C)cc2)C(=O)O)cc1` (mixture of isomers) [Cpd 18, 4-(2,6-dimethoxyphenyl)-N-[[2-[(4-methylphenyl)sulfonyl]-2-azabicyclo[2.2.2]oct-3-yl]carbonyl]-L-phenylalanine], the 50% inhibitory concentration (IC50) turned out to be 0.124 µM in assay [1] (setting [6]), 0.124 µM in assay [1] (setting [3]) and 0.21 µM in assay [2] (setting [7]).
For `O=C(Nc1ccc(C[C@H](NC(=O)[C@@H]2C3CCC(CC3)N2S(=O)(=O)c2ccccc2)C(=O)O)cc1)c1c(Cl)cccc1Cl` [Cpd 6a, 4-[(2,6-dichlorobenzoyl)amino]-N-[[(3S)-2-(phenylsulfonyl)-2-azabicyclo[2.2.2]oct-3-yl]carbonyl]-L-phenylalanine], the half-maximal inhibitory concentration (IC50) stood at 0.023 µM in assay [1] (setting [6]), 0.021 µM in assay [1] (setting [3]) and 0.217 µM in assay [2] (setting [7]).
With `CC(C)(C)Oc1ccc(C[C@H](NC(=O)C2C3CCC(CC3)N2S(=O)(=O)c2ccccc2)C(=O)O)cc1` (stereo partly drawn) [Cpd 45, O-(1,1-dimethylethyl)-N-[[2-(phenylsulfonyl)-2-azabicyclo[2.2.2]oct-3-yl]carbonyl]-L-tyrosine], the half-inhibitory concentration (IC50) in assay [1] (setting [3]) is 3.17 µM; in assay [2] (setting [4]), greater than 10 µM.
Regarding `COc1cccc(OC)c1C(=O)Nc1ccc(C[C@H](NC(=O)[C@@H]2C3CCC(C3)N2S(=O)(=O)c2ccccc2)C(=O)O)cc1` (stereo partly drawn) [Cpd 19a, 4-[(2,6-dimethoxybenzoyl)amino]-N-[[(3S)-2-(phenylsulfonyl)-2-azabicyclo[2.2.1]hept-3-yl]carbonyl]-L-phenylalanine], the 50% inhibitory concentration (IC50) came out at 0.3 µM in assay [1] (setting [6]), 0.3 µM in assay [1] (setting [3]) and 3.82 µM in assay [2] (setting [7]).
In the case of `Cc1ccc(S(=O)(=O)N2C3CCC(CC3)C2C(=O)N[C@@H](Cc2ccc(C#Cc3ccccc3)cc2)C(=O)O)cc1` (stereo partly drawn) [Cpd 24, 4-(phenylethynyl)-N-[[2-[(4-methylphenyl)sulfonyl]-2-azabicyclo[2.2.2]oct-3-yl]carbonyl]-L-phenylalanine], the IC50 in assay [1] (setting [3]) was 1.1 µM; in assay [2] (setting [4]), greater than 10 µM.
For `O=C(Nc1ccc(C[C@H](NC(=O)C2C3CCC(CC3)N2S(=O)(=O)c2ccccc2)C(=O)O)cc1)c1ccncc1` (stereo partly drawn) [Cpd 50, 4-[(4-pyridinylcarbonyl)amino]-N-[[2-(phenylsulfonyl)-2-azabicyclo[2.2.2]oct-3-yl]carbonyl]-L-phenylalanine], the values for the half-inhibitory concentration (IC50) in assay [1] (setting [3]) and in assay [2] (setting [8]) were 0.055 µM and 0.81 µM, respectively.
As for `O=C(Nc1ccc(C[C@H](NC(=O)C2C3CCC(CC3)N2S(=O)(=O)c2ccccc2)C(=O)O)cc1)Nc1c(F)cccc1F` (stereo partly drawn) [Cpd 34, 4-[[[(2,6-difluorophenyl)amino]carbonyl]amino]-N-[[2-(phenylsulfonyl)-2-azabicyclo[2.2.2]oct-3-yl]carbonyl]-L-phenylalanine], the IC50 in assay [1] (setting [5]) is greater than 5 µM; in assay [2] (setting [4]) it was greater than 10 µM.
For the compound `O=C(Nc1ccc(C[C@H](NC(=O)[C@H]2C3CCC(CC3)N2S(=O)(=O)c2ccccc2)C(=O)O)cc1)c1c(Cl)cccc1Cl` [Cpd 6b, 4-[(2,6-dichlorobenzoyl)amino]-N-[[(3R)-2-(phenylsulfonyl)-2-azabicyclo[2.2.2]oct-3-yl]carbonyl]-L-phenylalanine], the IC50 in assay [1] (setting [6]) came out at 0.222 µM; in assay [1] (setting [3]) it was 0.222 µM; in assay [2] (setting [7]), 0.421 µM.
Regarding `O=C(Nc1ccc(C[C@H](NC(=O)[C@@H]2C3CCC(CC3)N2S(=O)(=O)c2cccs2)C(=O)O)cc1)c1c(Cl)cncc1Cl` [Cpd 71a, 4-[[(3,5-dichloro-4-pyridinyl)carbonyl]amino]-N-[[(3S)-2-(2-thienylsulfonyl)-2-azabicyclo[2.2.2]oct-3-yl]carbonyl]-L-phenylalanine], the 50% inhibitory concentration (IC50) in assay [1] (setting [6]) was 0.006 µM; in assay [1] (setting [3]), 0.36 µM; in assay [2] (setting [7]), 0.033 µM.
In the case of `CC(C)(C)C(=O)Nc1ccc(C[C@H](NC(=O)[C@@H]2C3CCC(CC3)N2S(=O)(=O)c2ccccc2)C(=O)O)cc1` [Cpd 64, 4-[(2,2-dimethyl-1-oxopropyl)amino]-N-[[(3S)-2-(phenylsulfonyl)-2-azabicyclo[2.2.2]oct-3-yl]carbonyl]-L-phenylalanine], the IC50 was 0.393 µM in assay [1] (setting [3]) and greater than 10 µM in assay [2] (setting [4]).
On to `CC1(C)C(C(=O)Nc2ccc(C[C@H](NC(=O)[C@@H]3C4CCC(CC4)N3S(=O)(=O)c3ccccc3)C(=O)O)cc2)C1(C)C` [Cpd 68, 4-[[(2,2,3,3-tetramethylcyclopropyl)carbonyl]amino]-N-[[(3S)-2-(phenylsulfonyl)-2-azabicyclo[2.2.2]oct-3-yl]carbonyl]-L-phenylalanine], for which the 50% inhibitory concentration (IC50) in assay [1] (setting [3]) is 0.873 µM; in assay [2] (setting [4]), greater than 50 µM.
